Here are results for 31 molecules from US9586951B2 (FUJIFILM Corporation, priority 2013, dated 2017).

T1 sequence (Q13315 whole entry): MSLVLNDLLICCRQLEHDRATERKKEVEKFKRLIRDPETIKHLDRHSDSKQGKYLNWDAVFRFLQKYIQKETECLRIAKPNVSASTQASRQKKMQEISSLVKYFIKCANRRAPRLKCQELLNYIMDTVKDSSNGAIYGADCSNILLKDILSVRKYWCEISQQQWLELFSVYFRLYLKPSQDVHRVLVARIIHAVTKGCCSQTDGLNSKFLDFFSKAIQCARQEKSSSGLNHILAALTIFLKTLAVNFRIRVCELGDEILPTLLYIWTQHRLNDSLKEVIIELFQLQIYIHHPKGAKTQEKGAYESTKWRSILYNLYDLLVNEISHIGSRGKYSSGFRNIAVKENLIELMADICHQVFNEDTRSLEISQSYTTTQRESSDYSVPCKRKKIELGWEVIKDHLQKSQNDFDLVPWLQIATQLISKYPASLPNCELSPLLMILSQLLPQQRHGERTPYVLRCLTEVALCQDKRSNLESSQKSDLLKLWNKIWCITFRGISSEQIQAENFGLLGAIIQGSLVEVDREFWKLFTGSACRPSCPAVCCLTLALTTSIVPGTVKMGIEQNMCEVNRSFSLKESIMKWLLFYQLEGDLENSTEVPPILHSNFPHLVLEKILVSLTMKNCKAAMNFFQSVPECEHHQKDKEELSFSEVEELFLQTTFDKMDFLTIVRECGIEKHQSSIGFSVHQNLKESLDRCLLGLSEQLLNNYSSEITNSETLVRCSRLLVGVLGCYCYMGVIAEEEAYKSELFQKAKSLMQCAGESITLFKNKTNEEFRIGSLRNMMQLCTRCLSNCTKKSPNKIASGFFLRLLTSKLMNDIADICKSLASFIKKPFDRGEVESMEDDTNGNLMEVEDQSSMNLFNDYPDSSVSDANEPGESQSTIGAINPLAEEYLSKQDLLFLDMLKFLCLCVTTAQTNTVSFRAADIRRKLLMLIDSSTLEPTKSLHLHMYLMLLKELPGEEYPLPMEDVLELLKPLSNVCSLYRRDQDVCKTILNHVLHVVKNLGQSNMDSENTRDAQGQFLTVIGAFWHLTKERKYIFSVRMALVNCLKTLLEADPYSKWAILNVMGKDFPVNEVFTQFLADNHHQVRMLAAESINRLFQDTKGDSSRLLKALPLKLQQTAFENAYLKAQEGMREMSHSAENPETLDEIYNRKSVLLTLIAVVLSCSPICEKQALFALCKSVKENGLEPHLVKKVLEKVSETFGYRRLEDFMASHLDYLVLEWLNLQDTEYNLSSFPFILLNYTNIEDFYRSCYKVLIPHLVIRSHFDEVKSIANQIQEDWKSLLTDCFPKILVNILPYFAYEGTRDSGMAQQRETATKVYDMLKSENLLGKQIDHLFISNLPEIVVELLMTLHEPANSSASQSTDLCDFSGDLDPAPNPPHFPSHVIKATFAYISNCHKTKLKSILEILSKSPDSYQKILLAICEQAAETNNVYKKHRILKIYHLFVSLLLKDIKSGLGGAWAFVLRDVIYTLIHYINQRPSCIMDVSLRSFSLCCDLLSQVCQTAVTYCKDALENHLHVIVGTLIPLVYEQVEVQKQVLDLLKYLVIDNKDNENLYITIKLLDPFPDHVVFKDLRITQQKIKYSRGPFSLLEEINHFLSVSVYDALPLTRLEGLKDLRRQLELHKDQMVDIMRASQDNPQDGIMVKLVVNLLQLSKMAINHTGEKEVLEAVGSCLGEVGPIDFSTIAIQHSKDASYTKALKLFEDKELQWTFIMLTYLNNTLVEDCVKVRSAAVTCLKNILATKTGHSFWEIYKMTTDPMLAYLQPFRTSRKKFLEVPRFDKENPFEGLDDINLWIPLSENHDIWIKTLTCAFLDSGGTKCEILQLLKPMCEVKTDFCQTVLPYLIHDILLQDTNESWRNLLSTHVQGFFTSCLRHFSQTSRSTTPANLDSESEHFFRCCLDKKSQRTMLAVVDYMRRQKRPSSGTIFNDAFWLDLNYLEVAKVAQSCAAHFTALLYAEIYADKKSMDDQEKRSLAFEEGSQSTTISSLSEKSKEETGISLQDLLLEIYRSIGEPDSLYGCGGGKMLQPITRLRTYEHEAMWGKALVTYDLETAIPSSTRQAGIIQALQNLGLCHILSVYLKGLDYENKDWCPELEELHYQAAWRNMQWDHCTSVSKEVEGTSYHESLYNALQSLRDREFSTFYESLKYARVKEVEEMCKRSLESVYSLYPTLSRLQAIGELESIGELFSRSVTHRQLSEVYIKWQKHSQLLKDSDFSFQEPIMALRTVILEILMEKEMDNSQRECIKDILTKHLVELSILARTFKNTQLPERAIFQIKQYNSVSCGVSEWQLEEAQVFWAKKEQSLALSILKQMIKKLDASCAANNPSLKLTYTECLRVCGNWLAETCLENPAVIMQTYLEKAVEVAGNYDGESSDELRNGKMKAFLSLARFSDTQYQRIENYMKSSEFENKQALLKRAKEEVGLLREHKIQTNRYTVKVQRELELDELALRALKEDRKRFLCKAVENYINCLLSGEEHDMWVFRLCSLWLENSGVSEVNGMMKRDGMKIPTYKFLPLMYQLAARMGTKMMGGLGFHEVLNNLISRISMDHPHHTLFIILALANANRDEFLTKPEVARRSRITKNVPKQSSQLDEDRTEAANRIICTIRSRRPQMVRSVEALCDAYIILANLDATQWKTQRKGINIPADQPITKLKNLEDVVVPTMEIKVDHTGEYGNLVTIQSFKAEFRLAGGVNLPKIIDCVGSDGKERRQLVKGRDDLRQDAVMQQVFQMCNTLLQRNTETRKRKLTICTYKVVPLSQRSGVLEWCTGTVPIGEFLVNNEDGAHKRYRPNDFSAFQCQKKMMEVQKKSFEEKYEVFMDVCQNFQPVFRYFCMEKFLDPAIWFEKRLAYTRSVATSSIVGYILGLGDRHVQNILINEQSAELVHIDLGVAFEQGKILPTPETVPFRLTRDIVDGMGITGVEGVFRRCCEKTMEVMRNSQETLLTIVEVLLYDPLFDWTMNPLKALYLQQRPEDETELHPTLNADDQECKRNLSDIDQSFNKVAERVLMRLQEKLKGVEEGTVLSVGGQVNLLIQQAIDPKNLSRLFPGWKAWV

The assay has as its target T1, ATM (Homo sapiens, UniProt Q13315).
T1 construct: detecting phosphorylation of Chk2 in a human non-small cell lung cancer cell line NCI-H460 (ATCC company); host or cells: NCI-H460 human non-small cell lung cancer cells
The experiment in a line: ATM inhibition test (phosphorylation of Chk2 generated by ionizing radiation, AlphaScreen SureFire). Type of assay: cell-based. The note with it: phosphorylated Chk2 in NCI-H460 cells, ionizing radiation 8Gy, 1 hour after test compound treatment; read-out: ATM inhibitory activity. The gist of the method: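 NCI-H460 cells, compound 1 h pre-treatment, 8Gy IR, further 1 h at 37° C in 5% CO2. Read-out: phospho-Chk2 via AlphaScreen SureFire. % inhibition relative to IR-induced signal window (irradiated vs non-irradiated drug-free wells).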
Turning to `CC(CCN1CCCC1)Nc1ccc2c(c1)Sc1cccc(-c3cc(N4CCOCC4)cc(=O)[nH]3)c1S2` (stereo not shown) [Example 1-42-4, 4-Morpholino-6-(7-((4-(pyrrolidin-1-yl)butan-2-yl)amino)thianthren-1-yl) pyridin-2(1H)-one], the IC50 fell in the range of 100 to 500 nM.
The figure for `O=c1cc(N2CCOCC2)cc(-c2cccc3c2Oc2ccc(NCc4cncc(C5CCCC5)c4)cc2C3)[nH]1` [Example 2-2-66, 6-(7-(((5-Cyclopentylpyridin-3-yl)methyl)amino)-9H-xanthen-4-yl)-4-morpholino pyridin-2(1H)-one] is less than 100 nM.
The figure for `O=c1cc(N2CCOCC2)cc(-c2nccc3c2Oc2ccc(NCc4cccc(Cl)n4)cc2C3)[nH]1` [Example 2-41-8, 6-(7-(((6-Chloropyridin-2-yl)methlyl)anlino)-5H-chromeno [2,3-c]pyridin-1-yl)-4-morpholino pyridin-2(1H)-one] is 100 to 500 nM.
Then `O=c1cc(N2CCOCC2)nc(-c2cccc3c2Oc2ccc(NCc4cc(Cl)ccn4)cc2C3)[nH]1` [Example 2-52-3, 2-(7-(((4-Chloropyridin-2-yl)methyl)amino)-9H-xanthen-4-yl)-6-morpholinopyrimidine-4(3H)-one], with 100 to 500 nM.
For the molecule `N#Cc1ccc(CCN2CCC(Nc3ccc4c(c3)Cc3cccc(-c5cc(N6CCOCC6)cc(=O)[nH]5)c3O4)CC2)cc1` [Example 2-30-19, 4-(2-(4-((5-(4-Morpholino-6-oxo-1,6-dihydropyridin-2-yl)-9H-xanthen-2-yl)amino)piperidin-1-yl)ethyl) benzonitrile], the IC50 lay within 500 to 2000 nM.
The figure for `O=c1cc(N2CCOCC2)cc(-c2cccc3c2Sc2ccc(NC4CCN(C5CCOCC5)C4)cc2S3)[nH]1` (stereo not shown) [Example 1-24-13, 4-Morpholino-6-(7-((1-(tetrahydro-2H-pyran-4-yl)pyrrolidin-3-yl)amino)thianthren-1-yl)pyridin-2 (1H)-one] is 100 to 500 nM; for `CC(CN1CCN(C(C)C)CC1)Nc1ccc2c(c1)Sc1cccc(-c3cc(N4CCOCC4)cc(=O)[nH]3)c1S2` (stereo not shown) [Example 1-13-14, 6-(7-((1-(4-Isopropylpiperazin-1-yl)propan-2-yl)amino)thianthren-1-yl)-4-morpholino pyridin-2(1H)-one] it is 100 to 500 nM; for `CC(CNC1CCCC1)Nc1ccc2c(c1)Sc1cccc(-c3cc(N4CCOCC4)cc(=O)[nH]3)c1S2` (stereo not shown) [Example 1-13-8, 6-(7-((1-(Cyclopentylamino)propan-2-yl)amino)thianthren-1-yl)-4-morpholino pyridin-2 (1H)-one] it is 100 to 500 nM.
Then `N#Cc1ccc(CNc2ccc3c(c2)Cc2ccnc(-c4cc(N5CCOCC5)cc(=O)[nH]4)c2O3)s1` [Example 2-41-17, 5-(((1-(4-Morpholino-6-oxo-1,6-dihydropyridin-2-yl)-5H-chromeno[2,3-c]pyridin-7-yl)amino)methyl)thiophene-2-carbonitrile], with 100 to 500 nM; and `O=c1cc(N2CCOCC2)cc(-c2cccc3c2Oc2ccc(NC4CCCNC4)cc2S3)[nH]1` (stereo not shown) [Example 4-5, 4-morpholino-6-(8-(piperidin-3-ylamino)phenoxathiin-4-yl)pyridin-2(1H)-one], with 500 to 2000 nM; and `Cc1ccc(C(CCN(C)CCCN(C)C)Nc2ccc3c(c2)Sc2cccc(-c4cc(N5CCOCC5)cc(=O)[nH]4)c2S3)nc1` (single isomer, unassigned) [Example 10-5-2, 6-(7-((3-((3-(Dimethylamino)propyl)(methyl)amino)-1-(5-methylpyridin-2-yl)propyl)amino)thianthren-1-yl)-4-morpholinopyridin-2(1H)-one], with 100 to 500 nM.
Then `CN(C)c1cnc(CN(Cc2cnc(N(C)C)cn2)c2ccc3c(c2)Cc2cccc(-c4cc(N5CCOCC5)cc(=O)[nH]4)c2O3)cn1` [Example 2-2-76, 6-(7-(bis((5-(dimethylamino)pyrazin-2-yl)methyl)amino)-9H-xanthen-4-yl)-4-morpholinopyridin-2(1H)-one], with less than 100 nM; and `CNc1ncccc1CNc1ccc2c(c1)Sc1cccc(-c3cc(N4CCOCC4)cc(=O)[nH]3)c1S2` [Example 1-12-24, 6-(7-(((2-(Methylamino)pyridin-3-yl)methyl)amino)thianthren-1-yl)-4-morpholino pyridin-2(1H)-one], with 100 to 500 nM; and `COc1ccc(CNc2ccc3c(c2)Sc2cccc(-c4cc(N5CCOCC5)cc(=O)[nH]4)c2S3)cn1` [Example 1-12-16, 6-(7-(((6-Methoxypyridin-3-yl)methyl)amino)thianthren-1-yl)-4-morpholino pyridin-2 (1H)-one], with 100 to 500 nM.
Regarding `Cc1cccc(C(C)Nc2ccc3c(c2)Cc2cccc(-c4cc(N5CCOCC5)cc(=O)[nH]4)c2O3)n1` (single isomer, unassigned) [Example 2-14-85-1, 6-(7-((1-(6-methylpyridin-2-yl)ethyl)amino)-9H-xanthen-4-yl)-4-morpholinopyridin-2(1H)-one], the IC50 lay within 100 to 500 nM.
`Cc1ccc(C(C[C@@H]2CCCN2)Nc2ccc3c(c2)Sc2cccc(-c4cc(N5CCOCC5)cc(=O)[nH]4)c2S3)nc1` (single isomer, unassigned) [Example 12-1]: the IC50 lay within 100 to 500 nM.
The figure for `O=c1cc(N2CCOCC2)cc(-c2cccc3c2Oc2ccc(NCc4cccc(C5CC5)n4)cc2C3)[nH]1` [Example 2-2-68, 6-(7-(((6-Cyclopropylpyridin-2-yl)methyl)amino)-9H-xanthen-4-yl)-4-morpholino pyridin-2(1H)-one] is 100 to 500 nM; for `O=c1cc(N2CCOCC2)cc(-c2cccc3c2Oc2ccc(NC4CCN(Cc5ccco5)CC4)cc2C3)[nH]1` [Example 2-28-27, 6-(7-((1-(Furan-2-ylmethyl)piperidin-4-yl)amino)-9H-xanthen-4-yl)-4-morpholino pyridin-2(1H)-one] it is 100 to 500 nM; for `Cc1ccc(C(CCN2CCN(C)CC2)Nc2ccc3c(c2)Sc2cccc(-c4cc(N5CCOCC5)cc(=O)[nH]4)c2S3)nc1` (single isomer, unassigned) [Example 10-3-1, 6-(7-((3-(4-Methylpiperazin-1-yl)-1-(5-methylpyridin-2-yl)propyl)amino)thianthren-1-yl)-4-morpholino pyridin-2 (1H)-one] it is less than 100 nM.
Then `COCC(CN1CCN(C)CC1)Nc1ccc2c(c1)Sc1cccc(-c3cc(N4CCOCC4)cc(=O)[nH]3)c1S2` (stereo not shown) [Example 1-17-3, 6-(7-((1-Methoxy-3-(4-methylpiperazin-1-yl)propan-2-yl)amino)thianthren-1-yl)-4-morpholinopyridin-2(1H)-one], with 100 to 500 nM.
On to `Cc1cccc(C(CCN2CCCC2)Nc2ccc3c(c2)Sc2cccc(-c4cc(N5CCOCC5)cc(=O)[nH]4)c2S3)n1` (stereo not shown) [Example 1-34-6, 6-(7-((1-(6-Methylpyridin-2-yl)-3-(pyrrolidin-1-yl)propyl)amino)thianthren-1-yl)-4-morpholino pyridin-2(1H)-one], for which the IC50 was in the range of 100 to 500 nM.
With `O=C1CCN1c1cncc(CNc2ccc3c(c2)Sc2cccc(-c4cc(N5CCOCC5)cc(=O)[nH]4)c2O3)c1` [Example 4-8-16, 4-Morpholino-6-(8-(((5-(2-oxoazetidin-1-yl)pyridin-3-yl)methyl)amino)phenoxathiin-4-yl)pyridin-2 (IH)-one], the IC50 fell in the range of 100 to 500 nM.
On to `O=c1cc(N2CCOCC2)cc(-c2cccc3c2Sc2ccc(NCCCc4cccnc4)cc2S3)[nH]1` [Example 1-12-27, 4-Morpholino-6-(7-((3-(pyridin-3-yl)propyl)amino)thianthren-1-yl)pyridin-2(1H)-one], for which the IC50 lay in the range of 500 to 2000 nM.
The figure for `COCC(=O)N1CCC(Nc2ccc3c(c2)Sc2cccc(-c4cc(N5CCOCC5)cc(=O)[nH]4)c2S3)CC1` [Example 1-28, 6-(7-((1-(2-methoxyacetyl)piperidin-4-yl)amino)thianthren-1-yl)-4-morpholinopyridin-2(1H)-one] is 500 to 2000 nM; for `Cc1cnc(C(CCN(C)C)CNc2ccc3c(c2)Sc2cccc(-c4cc(N5CCOCC5)cc(=O)[nH]4)c2S3)cn1` (stereo not shown) [Example 12-3, 6-(7-((4-(Dimethylamino)-2-(5-methylpyrazin-2-yl)butyl)amino)thianthren-1-yl)-4-morpholinopyridin-2(1H)-one] it is 100 to 500 nM; for `CNCc1cccc(C(C)Nc2ccc3c(c2)Sc2cccc(-c4cc(N5CCOCC5)cc(=O)[nH]4)c2S3)n1` (stereo not shown) [Example 1-20-8, 6-(7-((1-(6-((Methylamino)methyl)pyridin-2-yl)ethyl)amino)thianthren-1-yl)-4-morpholino pyridin-2(1H)-one] it is 100 to 500 nM.
The figure for `CN1CCCC(Nc2ccc3c(c2)Cc2cccc(-c4cc(N5CCOCC5)cc(=O)[nH]4)c2O3)C1` (stereo not shown) [Example 2-7-1, 6-(7-((1-methylpiperidin-3-yl)amino)-9H-xanthen-4-yl)-4-morpholinopyridin-2(1H)-one] is 500 to 2000 nM; for `O=c1cc(N2CCOCC2)cc(-c2cccc3c2Sc2ccc(NCCN4CC(F)(F)C4)cc2S3)[nH]1` [Example 1-10-3, 6-(7-((2-(3,3-Difluoroazetidin-1-yl)ethyl)amino)thianthren-1-yl)-4-morpholinopyridin-2(1H)-one] it is 100 to 500 nM.
Then `CC(Nc1ccc2c(c1)Sc1cccc(-c3cc(N4CCOCC4)cc(=O)[nH]3)c1S2)C(=O)N1CCCC1C` (stereo not shown) [Example 1-18-6], with 100 to 500 nM; and `Nc1ncccc1CNc1ccc2c(c1)Sc1cccc(-c3cc(N4CCOCC4)cc(=O)[nH]3)c1O2` [Example 4-8-20, 6-(8-(((2-Aminopyridin-3-yl)methyl)amino)phenoxathiin-4-yl)-4-morpholino pyridin-2(1H)-one], with 500 to 2000 nM.
Consider `Cc1cc(CNc2ccc3c(c2)Sc2cccc(-c4cc(N5CCOCC5)cc(=O)[nH]4)c2O3)ccn1` [Example 4-4-3, 6-(8-(((2-Methylpyridin-4-yl)methyl)amino)phenoxathiin-4-yl)-4-morpholino pyridin-2 (1H)-one], for which the IC50 is 100 to 500 nM.
